In patent publication US11980633B2, “Method for treating cancer using a combination of DNA-damaging agents and DNA-PK inhibitors” (Vertex Pharmaceuticals Incorporated, priority 2016, dated 2024):

Legend:
[1] = system: pKAP1 and pH2AX levels in A549 cells; assay: pH2AX and pKAP1 immunoblot, Compound B-1 and etoposide in A549 lung cells; assay type: cell-based, human; conditions: 3 μM Compound B-1 + 10 μM etoposide; at 8 h
Method: A 15-μL aliquot of each SDS-PAGE sample was loaded onto 12-lane 4 20% Tris-Glycine gels and the gels were run at 125v constant voltage until the dye front reached the bottom (approximately 2 h). Following electrophoresis, separated proteins in the gels were transferred to a nitrocellulose membrane. Transfer was carried out for 2 h at 1.5 A constant current in a cold room using a Hoefer transfer apparatus (Model TE42 or TE62, Hoefer Inc, Holliston, MA) according to manufacturer's instructions. […]

[2] = system: pKAP1 and pH2AX levels in DU4475 breast cancer cells; assay: pKAP1 and pH2AX immunoblot, Compound B-2 and doxorubicin in DU4475 breast cancer cells; assay type: cell-based, human; conditions: for pH2AX level, max enhancement vs doxorubicin alone: at 12 h
Method: Materials and Methods. The human cancer cell lines A549 (CCL-185), DU4475 (HTB-123), MDA-MB-436 (HTB-130), and MDA-MB-468 (HTB-132) were obtained from American Type Culture Collection (ATCC; Manassas, VA). A 10 mM stock solution of Compound B-1 or Compound B-2 was prepared in DMSO and stored at −20° C. Etoposide and doxorubicin were purchased from Sigma-Aldrich (St. Louis, MO).
The A549 human lung cancer cell line was purchased from ATCC and was cultured in DMEM supplemented with 10% fetal bovine serum, 1× non-essential amino acids and 1× Penicillin/Streptomycin (complete medium). Cells were maintained at a subconfluent state by passaging every 2-3 days. Human breast cancer cells lines DU4475, MDA-MB-436, and MDA-MB-468 were purchased from ATCC and cultured in DMEM supplemented with 10% fetal bovine serum, 1× Glutamax and Penicillin/Streptomycin. Cells were maintained at a subconfluent state by passaging every 2-3 days.
Compound B-1 and Compound B-2 used in these experiments were not prepared as a co-crystals.
Breast cancer cell lines grown in 24-well (Costar, catalog #3526) or 6-well (Costar, catalog #3516) tissue culture plates to 70-80% confluence were pre-incubated with 1 μM Compound B-2 or DMSO for 15 min. Doxorubicin was added to a final concentration of either 100 nM or 500 nM from a 1000× stock prepared in DMSO. Cells were then incubated for the indicated amount of time and harvested for analysis.
Cell Lysis and Western Blot Analysis. Cells treated with Compound B-1 or Compound B-2 in combination with chemotherapeutic agents were washed once with ice-cold PBS and then dissolved in 150 μL/well 2×SDS-PAGE sample buffer, transferred to microfuge tubes, and heated in a 105° C. heat block for 5 min for immunoblotting. A 15-μL aliquot of each SDS-PAGE sample was loaded onto 12-lane 4 20% Tris-Glycine gels and the gels were run at 125v constant voltage until the dye front reached the bottom (approximately 2 h). Following electrophoresis, separated proteins in the gels were transferred to a nitrocellulose membrane. Transfer was carried out for 2 h at 1.5 A constant current in a cold room using a Hoefer transfer apparatus (Model TE42 or TE62, Hoefer Inc, Holliston, MA) according to manufacturer's instructions. Following transfer, nitrocellulose membranes were incubated with blocking buffer for 1 h at room temperature. The nitrocellulose membranes were cut and the bottom halves were incubated overnight with 2 primary antibodies, anti-pH2AX (1/1000) and anti-total H2AX (1/1000). After washing, the appropriate fluorescently labeled secondary antibodies were added to the membranes and then imaged with pH2AX on the 800 (green) channel and total H2AX on the 700 (red) channel. The top halves of the membranes were probed sequentially for pKAP1 (1/1000) on the 700 (red) channel and then probed for total KAP1 (1/1000) and GAPDH (1/2500) on the 800 (green) channel. Image acquisition was conducted using an Odyssey fluorescent imaging system (Li-Cor Biosciences; Lincoln, NE).
Compound B-2 and doxorubicin combination in breast cancer cell lines in culture. To examine the effect of DNA-PK inhibition on pKAP1 and pH2AX in vitro, DU4475 breast cancer cells were pre-incubated with 1 μM Compound B-2 for 15 min, followed by addition of 100 nM or 500 nM doxorubicin. Cells were harvested at various time points following doxorubicin addition and analyzed for levels of pKAP1 and pH2AX by immunoblotting.

Row | SMILES | pH2AX level, max increase as compared to etoposide treatment alone [1] | pKAP1 level, max increase as compared to etoposide treatment alone [1] | pKAP1 level, max enhancement vs doxorubicin alone ([2]; 1 μM Compound B-2 + 100 nM doxorubicin, at 12-24 h) | pH2AX level, max enhancement vs doxorubicin alone ([2]; 1 μM Compound B-2 + 100 nM doxorubicin) | pKAP1 level, max enhancement vs doxorubicin alone ([2]; 1 μM Compound B-2 + 500 nM doxorubicin, at 8 h) | pH2AX level, max enhancement vs doxorubicin alone ([2]; 1 μM Compound B-2 + 500 nM doxorubicin)
1 | CNC(=O)c1ccnc2c([C@H](C)CNc3cc(-c4cnc(C)nc4)ncn3)cccc12 [Compound B-1] | 2 fold | 7 fold | – | – | – | –
2 | [2H]c1nc(C)nc([2H])c1-c1cc(NC[C@@H](C)c2cccc3c(C(=O)NC)ccnc23)ncn1 [Compound B-2] | – | – | 37-42 fold | 2 fold | 19 fold | 1.6 fold
